Data reported in patent publication US20260355196A1, “INHIBITORS AND DEGRADERS OF PIP4K PROTEIN” (Larkspur Biosciences, Inc., priority 2023, published 2026).

Molecular target: T1, PIP4K2C (Homo sapiens, UniProt Q8TBX8)
T1 sequence (Q8TBX8 1-421): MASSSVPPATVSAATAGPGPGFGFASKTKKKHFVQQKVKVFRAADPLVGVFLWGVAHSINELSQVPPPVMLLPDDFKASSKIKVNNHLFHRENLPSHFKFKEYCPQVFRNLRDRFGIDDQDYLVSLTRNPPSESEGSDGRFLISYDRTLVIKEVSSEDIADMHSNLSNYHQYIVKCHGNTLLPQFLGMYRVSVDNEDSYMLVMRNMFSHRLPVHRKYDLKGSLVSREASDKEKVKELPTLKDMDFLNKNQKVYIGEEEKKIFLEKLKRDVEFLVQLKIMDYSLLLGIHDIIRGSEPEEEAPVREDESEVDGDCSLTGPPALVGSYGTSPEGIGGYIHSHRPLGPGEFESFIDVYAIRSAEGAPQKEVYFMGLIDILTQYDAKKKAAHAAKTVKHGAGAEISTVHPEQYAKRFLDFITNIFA
Assay: HiBiT PIP4K2C degradation assay in MOLT-4 cells (endogenous PIP4K2C C-terminally tagged with HiBiT)
Type: cell-based
Design: untagged in primary human PBMCs and monocyte-derived dendritic cells
Details: 6 hours of incubation time, rather than 24 hours; MOLT-4, top concentration 10 micromolar; read-out: HiBIT-degradation MOLT4 PIP4k2C DC50 (6 hours, marked *)
Method in brief: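 Cells are plated onto compound dilutions (10 points, 3-fold, top 10 micromolar) and incubated 24 or 6 hours at 37 C. Lytic HiBiT detection then quantifies tagged endogenous PIP4K2C in MOLT-4, and a Hill fit yields DC50.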

Row | Structure (SMILES) | DC50
1 | O=C1CCC(Nc2ccc(C3CCN(CC4CCC(C(=O)N5CCC(Nc6ncc(F)c(-c7cccc(N8CCCCC8)c7)n6)CC5)CC4)CC3)c(F)c2)C(=O)N1 (stereo not drawn) [Compound 682, trans-3-((3-fluoro-4-(1-((4-(4-((5-fluoro-4-(3-(piperidin-1-yl)phenyl)pyrimidin-2-yl)amino)piperidine-1-carbonyl)cyclohexyl)methyl)piperidin-4-yl)phenyl)amino)piperidine-2,6-dione] | < 500 nM
2 | O=C1CCC(Nc2ccc(C3CCN(C[C@H]4CC[C@H](C(=O)N5CCC(Nc6ncc(F)c(-c7cccc(N8CCOCC8=O)c7)n6)CC5)CC4)CC3)c(F)c2)C(=O)N1 (stereo partly drawn) [Compound 683, 3-((3-fluoro-4-(1-(((trans)-4-(4-((5-fluoro-4-(3-(3-oxomorpholino)phenyl)pyrimidin-2-yl)amino)piperidine-1-carbonyl)cyclohexyl)methyl)piperidin-4-yl)phenyl)amino)piperidine-2,6-dione] | > 5000 nM
3 | O=C1CCC(Nc2ccc(C3CCN(C[C@H]4CC[C@H](C(=O)N5CCC(Nc6ncc(F)c(-c7cccc(N8CCCOC8=O)c7)n6)CC5)CC4)CC3)c(F)c2)C(=O)N1 (stereo partly drawn) [Compound 684, trans-3-((3-fluoro-4-(1-((4-(4-((5-fluoro-4-(3-(2-oxo-1,3-oxazinan-3-yl)phenyl)pyrimidin-2-yl)amino)piperidine-1-carbonyl)cyclohexyl)methyl)piperidin-4-yl)phenyl)amino)piperidine-2,6-dione] | < 500 nM
4 | O=C1CCC(Nc2ccc(C3CCN(C[C@H]4CC[C@H](C(=O)N5CCC(Nc6ncc(F)c(-c7cccc(N8CCCCC8=O)c7)n6)CC5)CC4)CC3)c(F)c2)C(=O)N1 (stereo partly drawn) [Compound 685, 3-((3-fluoro-4-(1-((trans-4-(4-((5-fluoro-4-(3-(2-oxopiperidin-1-yl)phenyl)pyrimidin-2-yl)amino)piperidine-1-carbonyl)cyclohexyl)methyl)piperidin-4-yl)phenyl)amino)piperidine-2,6-dione] | < 500 nM
5 | O=C1CCC(Nc2ccc(N3CCN(CC4CCN(C(=O)[C@H]5CC[C@H](Nc6ncc(F)c(-c7cccc(N8CCOCC8)c7)n6)CC5)CC4)CC3)c(F)c2)C(=O)N1 (stereo partly drawn) [Compound 686, trans-3-((3-fluoro-4-(4-((1-(4-((5-fluoro-4-(3-morpholinophenyl)pyrimidin-2-yl)amino)cyclohexane-1-carbonyl)piperidin-4-yl)methyl)piperazin-1-yl)phenyl)amino)piperidine-2,6-dione] | < 500 nM
6 | O=C1CCC(Nc2ccc(N3CCN(C4CCN(C(=O)O[C@H]5CC[C@H](Nc6ncc(F)c(-c7cccc(N8CCCCC8)c7)n6)CC5)CC4)CC3)c(F)c2)C(=O)N1 (stereo partly drawn) [Compound 687, trans-4-((5-fluoro-4-(3-(piperidin-1-yl)phenyl)pyrimidin-2-yl)amino)cyclohexyl 4-(4-(4-((2,6-dioxopiperidin-3-yl)amino)-2-fluorophenyl)piperazin-1-yl)piperidine-1-carboxylate] | < 500 nM
7 | O=C1CCC(Nc2ccc(N3CCN(C4CCN(C(=O)O[C@H]5CC[C@H](Nc6ncc(F)c(-c7cccc(N8CCOCC8=O)c7)n6)CC5)CC4)CC3)c(F)c2)C(=O)N1 (stereo partly drawn) [Compound 688, trans-4-((5-fluoro-4-(3-(3-oxomorpholino)phenyl)pyrimidin-2-yl)amino)cyclohexyl 4-(4-(4-((2,6-dioxopiperidin-3-yl)amino)-2-fluorophenyl)piperazin-1-yl)piperidine-1-carboxylate] | < 500 nM
8 | O=C1CCC(Nc2ccc(C3CCN(C4CCN(C(=O)O[C@H]5CC[C@H](Nc6ncc(F)c(-c7cccc(N8CCCCC8)c7)n6)CC5)CC4)CC3)c(F)c2)C(=O)N1 (stereo partly drawn) [Compound 689, trans-4-((5-fluoro-4-(3-(piperidin-1-yl)phenyl)pyrimidin-2-yl)amino)cyclohexyl 4-(4-((2,6-dioxopiperidin-3-yl)amino)-2-fluorophenyl)-[1,4′-bipiperidine]-1′-carboxylate] | < 500 nM

Other lines, results leading:

Row | DC50 | Structure (SMILES)
9 | < 500 nM | O=C1CCC(Nc2ccc(C3CCN(C4CCN(C(=O)O[C@H]5CC[C@H](Nc6ncc(F)c(-c7cccc(N8CCOCC8=O)c7)n6)CC5)CC4)CC3)c(F)c2)C(=O)N1 (stereo partly drawn) [Compound 690, trans-4-((5-fluoro-4-(3-(3-oxomorpholino)phenyl)pyrimidin-2-yl)amino)cyclohexyl 4-(4-((2,6-dioxopiperidin-3-yl)amino)-2-fluorophenyl)-[1,4′-bipiperidine]-1′-carboxylate]
10 | < 500 nM | O=C1CCC(Nc2ccc(N3CCC(CC4(O)CCN(C(=O)[C@H]5CC[C@H](Nc6ncc(F)c(-c7cccc(-n8ccccc8=O)c7)n6)CC5)CC4)CC3)c(F)c2)C(=O)N1 (stereo partly drawn) [Compound 691, trans-3-((3-fluoro-4-(4-((1-(4-((5-fluoro-4-(3-(2-oxopyridin-1 (2H)-yl)phenyl)pyrimidin-2-yl)amino)cyclohexane-1-carbonyl)-4-hydroxypiperidin-4-yl)methyl)piperidin-1-yl)phenyl)amino)piperidine-2,6-dione]
11 | < 500 nM | O=C1CCC(Nc2ccc(C3CCN([C@H]4CC[C@H](NC(=O)[C@H]5CC[C@H](Nc6ncc(F)c(-c7cccc(-n8ccccc8=O)c7)n6)CC5)CC4)CC3(F)F)c(F)c2)C(=O)N1 (stereo partly drawn) [Compound 692, trans-N-(trans-4-(4-(4-((2,6-dioxopiperidin-3-yl)amino)-2-fluorophenyl)-3,3-difluoropiperidin-1-yl)cyclohexyl)-4-((5-fluoro-4-(3-(2-oxopyridin-1 (2H)-yl)phenyl)pyrimidin-2-yl)amino)cyclohexane-1-carboxamide]
12 | < 500 nM | O=C1CCC(Nc2ccc(C3CCN(C[C@H]4CC[C@H](C(=O)N5CCC(Nc6ncc(F)c(-c7cccc(-n8ccccc8=O)c7)n6)CC5)CC4)CC3)c(F)c2)C(=O)N1 (stereo partly drawn) [Compound 693, 3-((3-fluoro-4-(1-(((trans)-4-(4-((5-fluoro-4-(3-(2-oxopyridin-1 (2H)-yl)phenyl)pyrimidin-2-yl)amino)piperidine-1-carbonyl)cyclohexyl)methyl)piperidin-4-yl)phenyl)amino)piperidine-2,6-dione]
13 | < 500 nM | O=C1CCC(Nc2ccc(C3CCN(C4CCC(C(=O)N[C@H]5CC[C@H](Nc6ncc(F)c(-c7cccc(-n8ccccc8=O)c7)n6)CC5)CC4F)CC3)c(F)c2)C(=O)N1 (stereo partly drawn) [Compound 694, (1R,3S,4R)-4-(4-(4-((2,6-dioxopiperidin-3-yl)amino)-2-fluorophenyl)piperidin-1-yl)-3-fluoro-N-((trans)-4-((5-fluoro-4-(3-(2-oxopyridin-1 (2H)-yl)phenyl)pyrimidin-2-yl)amino)cyclohexyl)cyclohexane-1-carboxamide]
14 | < 500 nM | O=C1CCC(Nc2ccc(C3CCN(C4CCN(C(=O)O[C@H]5CC[C@H](Nc6ncc(F)c(-c7cccc(-n8ccccc8=O)c7)n6)CC5)CC4F)CC3)c(F)c2)C(=O)N1 (stereo partly drawn) [Compound 695, trans-4-((5-fluoro-4-(3-(2-oxopyridin-1 (2H)-yl)phenyl)pyrimidin-2-yl)amino)cyclohexyl 4-(4-((2,6-dioxopiperidin-3-yl)amino)-2-fluorophenyl)-3′-fluoro-[1,4′-bipiperidine]-1′-carboxylate]
15 | < 500 nM | O=C1CCC(Nc2ccc(C3CCN([C@H]4CC[C@H](NC(=O)[C@H]5CC[C@H](Nc6ncc(F)c(-c7ccnc(-n8ccccc8=O)c7)n6)CC5)CC4)CC3)c(F)c2)C(=O)N1 (stereo partly drawn) [Compound 696, trans-N-(trans-4-(4-(4-((2,6-dioxopiperidin-3-yl)amino)-2-fluorophenyl)piperidin-1-yl)cyclohexyl)-4-((5-fluoro-4-(2-oxo-2H-[1,2′-bipyridin]-4′-yl)pyrimidin-2-yl)amino)cyclohexane-1-carboxamide]
16 | < 500 nM | O=C1CCC(Nc2ccc(C3CCN(CCC4CCN(C(=O)O[C@H]5CC[C@H](Nc6ncc(F)c(-c7cccc(-n8ccccc8=O)c7)n6)CC5)CC4)CC3)c(F)c2)C(=O)N1 (stereo partly drawn) [Compound 697, trans-4-((5-fluoro-4-(3-(2-oxopyridin-1 (2H)-yl)phenyl)pyrimidin-2-yl)amino)cyclohexyl 4-(2-(4-(4-((2,6-dioxopiperidin-3-yl)amino)-2-fluorophenyl)piperidin-1-yl)ethyl)piperidine-1-carboxylate]
17 | < 500 nM | O=C1CCC(Nc2ccc(N3CCC(N4CCN(C(=O)O[C@H]5CC[C@H](Nc6ncc(F)c(-c7cccc(-n8ccccc8=O)c7)n6)CC5)CC4)CC3)c(F)c2)C(=O)N1 (stereo partly drawn) [Compound 698, trans-4-((5-fluoro-4-(3-(2-oxopyridin-1 (2H)-yl)phenyl)pyrimidin-2-yl)amino)cyclohexyl 4-(1-(4-((2,6-dioxopiperidin-3-yl)amino)-2-fluorophenyl)piperidin-4-yl)piperazine-1-carboxylate]
18 | < 500 nM | O=C1CCC(Nc2ccc(N3CCN([C@H]4CC[C@H](OC(=O)N5CCC(Nc6ncc(F)c(-c7cccc(-n8ccccc8=O)c7)n6)CC5)CC4)CC3)c(F)c2)C(=O)N1 (stereo partly drawn) [Compound 699, trans-(1R,4r)-4-(4-(4-(((R)-2,6-dioxopiperidin-3-yl)amino)-2-fluorophenyl)piperazin-1-yl)cyclohexyl 4-((5-fluoro-4-(3-(2-oxopyridin-1 (2H)-yl)phenyl)pyrimidin-2-yl)amino)piperidine-1-carboxylate]
